Read-outs that look alike come from different tables or passages of the source. A value given as a limit tells only on which side of the number the result lay.

The values below come from patent publication US20260347347A1, “2-AZA-AND 2-OXABICYCLO[2.1.1]HEXANE DERIVATIVES AS FACTOR XIIA ENZYME INHIBITORS” (KALVISTA PHARMACEUTICALS LIMITED, priority 2022, published 2026).

One assay has as its target human thrombin (Homo sapiens, UniProt P00734). Nature of the assay: Determination of related protease inhibition: thrombin. The format is biochemical. Here is the method:
(§1) In vitro inhibition of related proteases was determined using an IC50 assay based on standard literature methods (see e.g. Shori et al., Biochem. Pharmacol., 1992,43, 1209; Bouckaert et al., European Journal of Medicinal Chemistry 110 (2016) 181). Human serine protease enzyme Plasma Kallikrein, KLK1, FXa, Plasmin, Thrombin and Trypsin were assayed for enzymatic activity using an appropriate fluorogenic substrate at Km concentration, FXIa at fixed substrate concentration of 100 μM and various concentrations of the test compound. Protease activity was measured by monitoring the accumulation of liberated fluorescence from the substrate over 5 min at 25 °C. The linear rate of fluorescence increase per minute was expressed as percentage (%) activity. IC50 values were calculated as the concentration of inhibitor giving 50% inhibition of the uninhibited enzyme activity (100%).

A further assay has as its target human FXa (Homo sapiens, UniProt P00742). Briefly: Determination of related protease inhibition: FXa. Format: biochemical. As for the experimental part: as §1
In another assay the target is human KLK1 (Homo sapiens, UniProt P06870). Nature of the assay: Determination of related protease inhibition: KLK1. The format is biochemical. As for the experimental part:
as §1

Another assay has as its target human plasmin (Homo sapiens, UniProt P00747). Briefly: Determination of related protease inhibition: plasmin. Format: biochemical. Here is the method: as §1
Another assay addresses T1, Human Factor XIIa (Homo sapiens, UniProt P00748).
T1 construct: purchased Enzyme Research Laboratories
T1 sequence (P00748 373-615 limits assumed): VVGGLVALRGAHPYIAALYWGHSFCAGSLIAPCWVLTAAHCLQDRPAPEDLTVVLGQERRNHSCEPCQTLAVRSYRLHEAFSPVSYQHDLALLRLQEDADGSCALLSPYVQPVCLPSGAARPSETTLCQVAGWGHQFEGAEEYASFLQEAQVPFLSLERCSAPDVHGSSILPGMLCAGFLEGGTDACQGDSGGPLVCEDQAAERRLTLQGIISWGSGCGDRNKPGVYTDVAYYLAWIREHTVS
T1 sequence (P00748 20-372 partner limits assumed): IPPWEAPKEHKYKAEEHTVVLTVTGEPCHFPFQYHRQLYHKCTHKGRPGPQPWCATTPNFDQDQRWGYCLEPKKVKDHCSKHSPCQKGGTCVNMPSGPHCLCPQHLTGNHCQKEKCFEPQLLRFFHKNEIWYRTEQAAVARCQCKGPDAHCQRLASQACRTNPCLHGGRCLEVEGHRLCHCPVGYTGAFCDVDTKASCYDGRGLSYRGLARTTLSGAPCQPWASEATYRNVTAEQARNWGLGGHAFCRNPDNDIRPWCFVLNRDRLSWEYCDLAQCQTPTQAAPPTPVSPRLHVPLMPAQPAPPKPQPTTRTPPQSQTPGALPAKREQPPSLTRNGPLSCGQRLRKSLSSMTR
Briefly: Determination of FXIIa inhibition (in vitro IC50 assay, fluorogenic substrate H-DPro-Phe-Arg-AFC). Format: biochemical. In a few lines: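 Human FXIIa incubated at 25 °C with compound and H-DPro-Phe-Arg-AFC at its Km concentration. Linear fluorescence increase monitored over 5 min, expressed as % of uninhibited activity; IC50 is concentration giving 50% inhibition.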

In the next assay the target is T2, human PKal (Homo sapiens, UniProt P03952).
T2 construct: FXIIa converts plasma prekallikrein (PK) to plasma kallikrein (PKa)
Nature of the assay: Determination of related protease inhibition: plasma kallikrein. The format is biochemical. Here is the method:
as §1

Another assay addresses human FXIa (Homo sapiens, UniProt P03951). Nature of the assay: Determination of related protease inhibition: FXIa. Format: biochemical. Here is the method: as §1
The subject of assay [1] is patients with type I/II hereditary angioedema (HAE). Conditions: phase 3, monthly prophylactic subcutaneous treatment; cited from earlier work.
The subject of the next assay is human trypsin. Nature of the assay: Determination of related protease inhibition: trypsin. Format: biochemical. Conditions: fluorogenic substrate at Km concentration, 25 °C. As for the experimental part: as §1
Where [2] appears, read: fluorogenic substrate at Km concentration, 25 °C, read-out: IC50 (human thrombin).
The mark [3] stands for this setting: fluorogenic substrate at Km concentration, 25 °C, read-out: IC50 (human FXa).
Setting [4] is: fluorogenic substrate at Km concentration, 25 °C, read-out: IC50 (human KLK1).
Setting [5] is: fluorogenic substrate at Km concentration, 25 °C, read-out: IC50 (human plasmin).
Setting [6] is: human Factor XIIa, fluorogenic substrate H-DPro-Phe-Arg-AFC at Km concentration, 5 min, 25 °C, class symbols, read-out: Human FXIIa IC50.
Where [7] appears, read: fluorogenic substrate at Km concentration, 25 °C, read-out: IC50 (human PKal).

Chain of human KLK1 (P06870 25-262): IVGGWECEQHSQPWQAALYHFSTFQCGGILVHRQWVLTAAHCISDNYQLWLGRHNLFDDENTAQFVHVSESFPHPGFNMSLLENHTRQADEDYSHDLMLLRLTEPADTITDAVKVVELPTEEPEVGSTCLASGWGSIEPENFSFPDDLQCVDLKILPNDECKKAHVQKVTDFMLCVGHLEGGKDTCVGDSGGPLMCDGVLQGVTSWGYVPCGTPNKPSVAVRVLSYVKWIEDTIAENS
T2 sequence (P03952 391-638 limits assumed): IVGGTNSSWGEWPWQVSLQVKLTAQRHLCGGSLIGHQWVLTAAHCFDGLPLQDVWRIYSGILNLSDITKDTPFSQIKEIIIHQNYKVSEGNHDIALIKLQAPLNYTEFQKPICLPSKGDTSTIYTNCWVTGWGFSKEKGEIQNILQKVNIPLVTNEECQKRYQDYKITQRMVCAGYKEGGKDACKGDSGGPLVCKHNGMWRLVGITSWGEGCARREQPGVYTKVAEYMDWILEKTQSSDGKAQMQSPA
T2 sequence (P03952 20-390 partner limits assumed): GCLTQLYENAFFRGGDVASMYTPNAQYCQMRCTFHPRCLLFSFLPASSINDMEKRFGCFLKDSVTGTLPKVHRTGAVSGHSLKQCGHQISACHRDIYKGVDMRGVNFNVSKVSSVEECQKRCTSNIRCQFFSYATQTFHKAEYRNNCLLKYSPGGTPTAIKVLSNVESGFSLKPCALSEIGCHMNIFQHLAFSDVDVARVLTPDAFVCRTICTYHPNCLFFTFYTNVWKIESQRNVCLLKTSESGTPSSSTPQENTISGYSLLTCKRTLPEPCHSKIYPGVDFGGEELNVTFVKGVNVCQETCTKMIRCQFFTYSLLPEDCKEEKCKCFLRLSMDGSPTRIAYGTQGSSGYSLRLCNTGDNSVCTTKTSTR
Chain of human plasmin (P00747 581-810 limits assumed): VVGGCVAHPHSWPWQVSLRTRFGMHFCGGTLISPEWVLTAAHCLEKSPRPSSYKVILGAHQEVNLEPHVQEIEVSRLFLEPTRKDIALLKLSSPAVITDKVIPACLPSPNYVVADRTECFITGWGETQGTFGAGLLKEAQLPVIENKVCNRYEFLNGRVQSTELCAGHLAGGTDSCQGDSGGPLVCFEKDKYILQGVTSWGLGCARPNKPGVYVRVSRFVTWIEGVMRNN
Chain of human plasmin (P00747 97-580 partner limits assumed): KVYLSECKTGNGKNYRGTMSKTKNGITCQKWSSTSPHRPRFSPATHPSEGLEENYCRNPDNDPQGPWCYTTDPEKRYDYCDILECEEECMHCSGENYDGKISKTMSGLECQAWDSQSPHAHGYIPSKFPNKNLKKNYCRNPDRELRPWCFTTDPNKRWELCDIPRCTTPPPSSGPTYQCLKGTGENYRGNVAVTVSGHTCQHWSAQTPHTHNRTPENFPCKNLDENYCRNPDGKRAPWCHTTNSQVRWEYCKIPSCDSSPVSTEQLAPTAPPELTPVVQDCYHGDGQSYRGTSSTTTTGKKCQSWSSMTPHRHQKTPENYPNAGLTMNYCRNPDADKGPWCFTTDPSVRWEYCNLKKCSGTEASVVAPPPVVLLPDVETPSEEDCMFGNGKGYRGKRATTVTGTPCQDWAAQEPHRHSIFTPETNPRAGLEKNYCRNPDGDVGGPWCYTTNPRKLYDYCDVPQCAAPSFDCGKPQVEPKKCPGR
Chain of human FXa (P00742 235-488 limits assumed): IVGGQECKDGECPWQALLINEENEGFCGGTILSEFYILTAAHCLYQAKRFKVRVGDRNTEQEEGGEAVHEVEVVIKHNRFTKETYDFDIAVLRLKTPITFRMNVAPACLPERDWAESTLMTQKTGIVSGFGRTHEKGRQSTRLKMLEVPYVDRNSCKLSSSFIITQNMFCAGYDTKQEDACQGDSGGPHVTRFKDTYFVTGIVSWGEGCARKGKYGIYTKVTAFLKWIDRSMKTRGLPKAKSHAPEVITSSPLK
Chain of human FXa (P00742 41-179 partner limits assumed): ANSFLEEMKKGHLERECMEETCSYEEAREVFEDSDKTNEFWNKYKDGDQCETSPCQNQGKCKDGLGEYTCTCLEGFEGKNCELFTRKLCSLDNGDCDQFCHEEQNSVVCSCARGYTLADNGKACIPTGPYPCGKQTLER
Chain of human FXIa (P03951 388-625 limits assumed): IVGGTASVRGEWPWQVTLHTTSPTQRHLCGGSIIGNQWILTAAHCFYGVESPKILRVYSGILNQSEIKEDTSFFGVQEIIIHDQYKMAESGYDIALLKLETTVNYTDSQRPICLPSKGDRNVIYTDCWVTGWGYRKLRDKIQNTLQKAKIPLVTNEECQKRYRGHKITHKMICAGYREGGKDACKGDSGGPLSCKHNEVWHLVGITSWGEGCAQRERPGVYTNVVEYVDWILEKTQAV
Chain of human FXIa (P03951 19-387 partner limits assumed): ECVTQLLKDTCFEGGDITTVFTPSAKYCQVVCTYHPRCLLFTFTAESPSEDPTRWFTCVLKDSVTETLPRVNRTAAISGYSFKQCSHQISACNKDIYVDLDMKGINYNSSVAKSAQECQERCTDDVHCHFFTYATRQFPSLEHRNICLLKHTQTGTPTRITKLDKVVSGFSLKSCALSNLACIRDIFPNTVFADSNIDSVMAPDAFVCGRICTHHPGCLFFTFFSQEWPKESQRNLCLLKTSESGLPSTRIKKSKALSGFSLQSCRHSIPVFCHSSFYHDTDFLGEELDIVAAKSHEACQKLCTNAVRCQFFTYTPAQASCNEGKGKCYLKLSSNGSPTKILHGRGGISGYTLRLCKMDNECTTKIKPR

`Cc1cc(OCC23CN(C(=O)C4CC5(CCOCC5)C4)C(CNc4cccc5c(N)nccc45)(C2)C3)cc(=O)n1C` [Example 20, 4-((1-(((1-aminoisoquinolin-5-yl)amino)methyl)-2-(7-oxaspiro[3.5]nonane-2-carbonyl)-2-azabicyclo[2.1.1]hexan-4-yl)methoxy)-1,6-dimethylpyridin-2(1H)-one]: the 50% inhibitory concentration (IC50) – broadly, the midpoint of a concentration-inhibition curve – was above 40 µM on human thrombin (setting [2]); 10 to 40 µM at human FXa (setting [3]); 10 to 40 µM on human KLK1 (setting [4]); 10 to 40 µM on human plasmin (setting [5]); 0.01 to 0.1 µM at Human Factor XIIa (setting [6]); above 40 µM at human PKal (setting [7]). Besides, at human FXIa (fixed substrate concentration of 100 μM, 25 °C, read-out: IC50 (human FXla)), the IC50 was 10 to 40 µM.

In the case of `Cn1ccc(OCC23CN(C(=O)NC4(c5ccccc5)CC4)C(CNc4cccc5c(N)nccc45)(C2)C3)cc1=O` [Example 30, 1-(((1-Aminoisoquinolin-5-yl)amino)methyl)-4-(((1-methyl-2-oxo-1,2-dihydropyridin-4-yl)oxy)methyl)-N-(1-phenylcyclopropyl)-2-azabicyclo[2.1.1]hexane-2-carboxamide], the IC50 was above 40 µM against human thrombin; 10 to 40 µM against human FXa; 1 to 3 µM on human KLK1; 10 to 40 µM at human plasmin; 0.001 to 0.01 µM on Human Factor XIIa; 10 to 40 µM on human PKal. The 50% inhibitory concentration (IC50) on human FXIa was 3 to 10 µM.

In the case of “Garadacimab: Garadacimab (CSL-312), a monoclonal antibody inhibitory against FXIIa”, the “attacks in patients with type I/II hereditary angioedema” value in [1] was “reduce attacks”.

With `Cn1ccc(OCC23CN(C(=O)CC4CCCCC4)C(CNc4cccc5c(N)nccc45)(C2)C3)cc1=O` [Example 5, 4-((1-(((1-aminoisoquinolin-5-yl)amino)methyl)-2-(2-cyclohexylacetyl)-2-azabicyclo[2.1.1]hexan-4-yl)methoxy)-1-methylpyridin-2(1H)-one], the IC50 at human thrombin (setting [2]) is 10 to 40 µM; on human FXa (setting [3]), 10 to 40 µM; on human KLK1 (setting [4]), 1 to 3 µM; on human plasmin (setting [5]), 3 to 10 µM; at Human Factor XIIa (setting [6]) it was 0.01 to 0.1 µM; at human PKal (setting [7]), above 40 µM. In addition, the half-inhibitory concentration (IC50) in the assay on human trypsin was in the range of 10 to 40 µM.
